Laboratory results reported in paper PMC11412900 (Molecular Psychiatry, 2024).
Where two headings read alike, the source gives them in different places.

Assays:
[1] = tested on: core body temperature in mice; assay: Core body temperature measurement; format: in vivo; settings: mice, i.p., 60 min after injection
Procedure: Rectal temperature of mice (N = 8–10 per group) was measured 60 min after i.p. injection of the corresponding compound (see previous section “Head twitch response”). This time point was chosen according to the maximal effect observed in pilot experiments. A thermocouple probe (YS451, Panlab, Barcelona, Spain) connected to a digital thermometer (TMP812RS, Panlab, Barcelona, Spain) was inserted 2 cm into the rectum and steady temperature readout was obtained after 10 s of insertion.
(§1) Data were expressed as means±standard deviation (SD). Competition, release and functional assays, and substrate-induced current curves were plotted and fitted by non-linear regression to obtain the IC50, EC50, and Emax values. For behavioral studies, data were fitted by non-linear regression and pED50 and Emax values (with the corresponding 95% CI) were estimated by means of a software (GraphPad Prism 10) that further extrapolates the data. The Cheng-Prusoff equation was used to calculate Ki (affinity): Ki = […]/(1 + [radioligand-concentration/Kd]). HTR curves were fitted using a Gaussian equation as described. Data from batch release assays were statistically analyzed with a mixed-effects model, employing Šidák’s correction for multiple comparisons. Total release at each concentration and the behavioral experiments with the corresponding antagonists were statistically analyzed using one-way ANOVA, followed by Tukey’s post-hoc test. Molecular volume (van der Waals) was calculated using a grid approximation (spacing 0.75 Å). logP was calculated using Molinspiration Cheminformatics software. For in vivo studies, one-way ANOVA with Dunnet’s post-hoc test was used to compare all conditions to saline in dose-response experiments when data were normally distributed. Otherwise, a non-parametric test (Kruskall-Wallis with Dunn’s post-hoc test) was used. Alpha was set at 0.05. Outliers were excluded following ROUT’s method (Q = 0.1%). All statistical analyses and Pearson correlations were conducted using GraphPad Prism 10 software (GraphPad software, San Diego, CA, USA).

h5-HT1AR = target: T1, h5-HT1AR (Homo sapiens, UniProt P08908); assay: Radioligand binding, [3H]8-OH-DPAT displacement
T1 construct: purchased Perkin Elmer, Inc. (Waltham, MA, USA)
T1 sequence (P08908 1-422): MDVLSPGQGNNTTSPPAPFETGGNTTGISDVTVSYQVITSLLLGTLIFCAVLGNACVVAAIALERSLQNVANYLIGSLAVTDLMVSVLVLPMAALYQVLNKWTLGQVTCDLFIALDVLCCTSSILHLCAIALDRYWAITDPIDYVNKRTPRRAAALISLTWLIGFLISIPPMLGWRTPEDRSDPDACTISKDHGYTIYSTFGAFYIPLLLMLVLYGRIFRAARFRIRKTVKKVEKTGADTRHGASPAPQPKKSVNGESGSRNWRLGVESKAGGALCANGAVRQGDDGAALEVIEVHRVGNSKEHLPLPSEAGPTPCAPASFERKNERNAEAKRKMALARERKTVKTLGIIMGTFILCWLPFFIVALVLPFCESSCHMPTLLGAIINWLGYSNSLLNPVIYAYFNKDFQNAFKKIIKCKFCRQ
Procedure: Binding assays were performed as described previously. Briefly, membrane preparations expressing h5-HT1AR, h5-HT2AR or hSERT (see Supplementary Material) were incubated with radiolabeled selective ligands 0.4 nM [^3H]8-OH-DPAT, 1 nM [^3H]ketanserin or 3 nM [^3H]imipramine, respectively. The drugs were diluted in the corresponding binding buffer and tested at increasing concentrations in duplicate. Binding reactions were performed in tubes containing the drug dilutions; 25 μl of the corresponding radioligand; and the membranes (10 μg and 5 μg/500 μL for 5-HT1AR and 5-HT2AR, respectively, and 15 μg/100 μL for hSERT), all diluted in binding buffer. […] Incubation was performed for 1 h at 27 °C for 5-HT1A/2AR and 22 °C for hSERT, according to the manufacturer’s protocol (Perkin Elmer, Inc., Waltham, MA, USA) and previous studies - saturation and kinetic experiments, respectively. The binding reactions were stopped by rapid filtration through GF/B glass microfiber filters pre-soaked with 0.5% polyethyleneimine and washing with ice-cold wash buffer. The filters were placed into vials and scintillation cocktail was added. The trapped radioactivity was quantified. Specific binding was defined as the difference between total binding (binding buffer alone) and non-specific binding. Experiments were conducted per duplicate for at least three independent experiments.

[2] = tested on: head twitch response in mice; assay: Head twitch response (HTR); format: in vivo; settings: mice, i.p.; for HTR Emax (95% CI): 10-min period
Procedure: HTR studies were adapted from. Mice (N = 8–10 per group) were injected intraperitoneally (i.p.) with saline or the appropriate tryptamine dose (0.3, 1, 3, 10, or 30 mg/kg) and placed into the observation arena (25 × 25 × 40 cm). A camera mounted above the observation cage recorded the mice for the next 10 min after the injection. Another batch of animals (N = 8–10) received subcutaneous injections of either saline or the respective antagonist (WAY100635 1 mg/kg for 5-HT1AR or ketanserin 1 mg/kg for 5-HT2AR). After a 10-min interval, the animals were i.p. injected with the corresponding tryptamine (10 mg/kg) and placed in the observation arena. Animal behavior was recorded for the next 10 min after the last injection, as mentioned before. Video recordings were examined by two blind observers blinded to the treatments, who assessed the number of head twitches, defined as a rapid rotational jerk of the head which is not contiguous with any grooming behavior [39].
as §1

SERT [3] = target: T2, SERT (Homo sapiens, UniProt P31645); assay: Whole-cell patch clamp, transporter-mediated currents in HEK293 cells; format: cell-based; settings: for EC50: clamped at −60 mV, N = 5, read-out: SERT-mediated inward current EC50; for SERT-mediated inward current Emax: normalized to current elicited by 5-HT 10 µM; for SERT substrate type: whole-cell patch clamp
T2 construct: YFP (yellow-fluorescent protein); expressed in transfected cells
T2 sequence (P31645 whole entry): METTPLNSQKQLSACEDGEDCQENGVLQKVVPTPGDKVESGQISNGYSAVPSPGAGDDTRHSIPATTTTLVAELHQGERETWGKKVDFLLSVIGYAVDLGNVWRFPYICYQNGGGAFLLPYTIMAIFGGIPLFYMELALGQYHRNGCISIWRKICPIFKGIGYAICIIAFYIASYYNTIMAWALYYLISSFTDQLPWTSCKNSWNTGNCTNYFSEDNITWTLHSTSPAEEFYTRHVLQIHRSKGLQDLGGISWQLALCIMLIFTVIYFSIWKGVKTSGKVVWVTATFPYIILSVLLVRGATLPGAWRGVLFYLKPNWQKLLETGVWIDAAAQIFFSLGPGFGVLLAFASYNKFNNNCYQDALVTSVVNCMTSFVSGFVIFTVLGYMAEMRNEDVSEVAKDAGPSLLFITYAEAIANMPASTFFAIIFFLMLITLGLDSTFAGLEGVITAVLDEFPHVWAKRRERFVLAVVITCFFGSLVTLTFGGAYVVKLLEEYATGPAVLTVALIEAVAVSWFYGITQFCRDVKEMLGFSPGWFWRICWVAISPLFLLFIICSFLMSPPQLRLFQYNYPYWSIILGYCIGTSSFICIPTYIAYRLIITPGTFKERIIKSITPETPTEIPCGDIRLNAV
From the text: Whole-cell patch clamping was used to measure the transporter-mediated currents and performed as previously described. […] Cells were continuously superfused by a DAD-12 superfusion system and an 8-tube perfusion manifold (ALA Scientific Instruments in Farmingdale, NY, USA), which allowed to apply a physiological external solution. The pipette solution mimics the internal ionic composition of a cell. […] Passive holding currents were subtracted, and the traces were filtered using a 50-Hz digital Gaussian low-pass filter for analysis purposes. Five independent experiments were performed.

SERT [4] = target: T2, SERT; assay: Superfusion release assay of [3H]5-HT; format: cell-based
Procedure: Concentration-response release assays were performed using a superfusion assay. […] Afterwards, cells were manually and gently washed once with KHB, and superfused with KHB at a rate of 0.5 mL/min for 10 min at room temperature (RT), to establish a stable basal release. Three 2 min-fractions of basal release were collected in 10 mL counting vials before exposing cells to various concentrations of 5-MeO-pyr-T (five fractions). Subsequently, the cells were superfused with 1% SDS for three final fractions to determine total radioactivity present at cells at the end of the experiment. 2 mL of scintillation cocktail was added to each vial, radioactivity was measured and expressed as percentage of released radioactivity in relation to the total radioactivity present at the beginning of that fraction. Experiments were performed per triplicate for five independent experiments.

[5] = 0.4 nM [3H]8-OH-DPAT, N ≥ 3, read-out: 5-HT1AR Ki ± SD

Structure (SMILES)	Change in body temperature ED50 [1] [mg/kg]	Ki (h5-HT1AR; [5]) [nM]	HTR Emax (95% CI) [2]	HTR ED50 ([2]; 10 min after injection) [mg/kg]	EC50 (SERT [3]) [nM]	SERT-mediated inward current Emax (SERT [3])	SERT substrate type (SERT [3])	ED50 ([1]; Mus musculus, ip, 1 h, read-out: Change in body temperature ED50) [mg/kg]	Ki (h5-HT1AR) [nM]	ED50 ([2]; Mus musculus, ip, 10 min, 10 min after injection) [mg/kg]	5-HT releaser type (SERT [4]; peak of efflux vs positive control pCA)	EC50 (SERT [4]; read-out: 5-HT release EC50, superfusion, N = 5) [nM]
C=CCN(CC=C)CCc1c[nH]c2ccc(OC)cc12 [5-MeO-DALT]	13.6	3.26 ± 0.39	10.4 (8.5–12.4) HTR events	4.16	–	–	–	–	–	–	–	–
CCN(CC)CCc1c[nH]c2ccc(OC)cc12 [5-MeO-DET]	7.18	4.93 ± 0.62	9.73 (7.61–11.85) HTR events	2.32	3500	0.26	partial SERT substrates	–	–	–	–	–
COc1ccc2[nH]cc(CCN(C(C)C)C(C)C)c2c1 [5-MeO-DIPT, 5-methoxy-N,N-diisopropyltryptamine]	–	–	10.5 (8.5–12.5) HTR events	–	–	–	–	14.8	15.8 ± 1.3	0.477	–	–
CCN(CCc1c[nH]c2ccc(OC)cc12)C(C)C [5-MeO-EIPT]	15.0	18.4 ± 8.4	9.27 (7.10–11.44) HTR events	10.6	–	–	–	–	–	–	–	–
CCN(C)CCc1c[nH]c2ccc(OC)cc12 [5-MeO-MET]	4.76	3.11 ± 0.51	28.4 (23.5–33.2) HTR events	2.72	13000	0.46	partial SERT substrates	–	–	–	–	–
COc1ccc2[nH]cc(CCN(C)C(C)C)c2c1 [5-MeO-MIPT]	14.8	24.8 ± 7.6	14.19 (11.7–16.68) HTR events	0.791	–	–	–	–	–	–	–	–
COc1ccc2[nH]cc(CCN3CCCC3)c2c1 [5-MeO-pyr-T]	2.89	0.577 ± 0.195	10.0 (6.9–13.1) HTR events	7.29	90	0.49	partial SERT substrates	–	–	–	5-HT partial releaser	5700 ± 1590
